Target: T1, human zDHHC2 (Homo sapiens, UniProt Q9UIJ5)
T1 construct: expressed in transfected cells; host or cells: HEK293T
T1 sequence (Q9UIJ5 1-367): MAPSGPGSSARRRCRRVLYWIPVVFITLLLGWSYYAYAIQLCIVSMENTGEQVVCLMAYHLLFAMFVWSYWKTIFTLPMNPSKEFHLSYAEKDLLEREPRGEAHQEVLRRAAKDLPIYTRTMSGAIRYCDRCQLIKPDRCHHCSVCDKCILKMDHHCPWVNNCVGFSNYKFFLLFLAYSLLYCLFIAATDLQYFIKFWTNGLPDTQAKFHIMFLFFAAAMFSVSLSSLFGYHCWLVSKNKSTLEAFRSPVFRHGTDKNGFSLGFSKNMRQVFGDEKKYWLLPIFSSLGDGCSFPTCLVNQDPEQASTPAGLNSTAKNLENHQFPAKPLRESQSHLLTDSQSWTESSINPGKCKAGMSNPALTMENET
Experiment: S-acylation (autoacylation) of HA-zDHHC2 in HEK293T cells, click chemistry
Type: cell-based
Conditions: resynthesized UoS compounds, 25 μM, p < 0.001 vs DMSO
Experimental: Figure 8 Activity of TTZ-1 (UoS) and TTZ-2 (UoS) against human zDHHC2 autoacylation expressed in mammalian cells. HEK293T cells were transfected with either the control plasmid pEF-BOS-HA (pEF) or a plasmid encoding HA-tagged human zDHHC2 (zD2) for 24 h. Cells were then preincubated for 4 h with UoS compounds TTZ-1 (UoS) (A) or TTZ-2 (UoS) (B) (25 μM final) or DMSO control before metabolic labeling with 100 μM C16:0-azide for 4 h. Cells were lysed, and proteins having incorporated C16:0-azide were labeled by click chemistry with an alkyne-IR800 dye. Protein samples were then resolved by SDS-PAGE, and the gel was scanned for the detection of the click chemistry signal in the infrared-800 channel. […] Two independent experiments were performed in sextuplicate, and the quantification data were gathered on the graphs below each set of membranes. […]
HEK293T cells were plated on poly-D-lysine–coated 24-well plates (catalog no.: 356413; Corning BioCoat, VWR) and transfected with 2.4 μg of pEF-zDHHC2 plasmid (or the control empty plasmid pEF-BOS-HA) for the measurement of zDHHC2 autoacylation and 4.8 μl of Lipofectamine 2000 (Invitrogen). […] Membranes were first stained with Revert 700 total protein stain kit (catalog no.: 926-11016; LI-COR), imaged, destained, and then analyzed by immunoblotting. Signals were quantified with ImageStudio software (LI-COR). […]

In the case of `CCCCCCCOc1ccc(C(=O)Nc2cccc3c2OC(c2nnn[nH]2)CN3)cc1` (centres unmarked) [TTZ-1, N-(2-(1H-Tetrazol-5-yl)-3,4-dihydro-2H-benzo[b][1,4]oxazin-8-yl)-4-(heptyloxy)benzamide], the “S-acylation of HA-zDHHC2 in HEK293T cells” value is reported as “significantly reduced”.
For `O=C(Nc1cccc2c1OC(c1nnn[nH]1)CN2)c1ccc(OCCCCc2ccccc2)cc1` (centres unmarked) [TTZ-2, N-(2-(1H-Tetrazol-5-yl)-3,4-dihydro-2H-benzo[b][1,4]oxazin-8-yl)-4-(4-phenylbutoxy)benzamide], the “S-acylation of HA-zDHHC2 in HEK293T cells” value was “significantly reduced”.

From PMC9558053, “Development of a novel high-throughput screen for the identification of new inhibitors of protein S-acylation” (The Journal of Biological Chemistry, 2022)
